This is an account of results in PMC9796130, “The First Structure of Human MTHFD2L and Its Implications for the Development of Isoform‐Selective Inhibitors” (Chemmedchem, 2022).

The target of the assay is T1, MTHFD2L (Homo sapiens, UniProt Q9H903).
T1 construct: amino acids 50–347, His-tagged
T1 sequence (Q9H903 50-347): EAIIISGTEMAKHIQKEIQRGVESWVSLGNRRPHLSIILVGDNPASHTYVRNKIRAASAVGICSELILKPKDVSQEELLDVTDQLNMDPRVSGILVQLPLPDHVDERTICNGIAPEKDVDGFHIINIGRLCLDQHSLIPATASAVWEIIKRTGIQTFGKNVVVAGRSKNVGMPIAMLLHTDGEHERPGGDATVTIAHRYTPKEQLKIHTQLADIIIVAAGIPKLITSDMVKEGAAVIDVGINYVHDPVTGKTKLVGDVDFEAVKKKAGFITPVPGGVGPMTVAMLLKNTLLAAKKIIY
Kind of assay: X-ray co-crystal structure ([…] Å); IC50 on purified enzyme by NAD(P)H-Glo luminescence assay. In kind it is biochemical.

pIC50: −log10 of the molar value.

Turning to `Nc1nc(N)c(NC(=O)Nc2ccc(C(=O)NC(CCC(=O)O)C(=O)O)cc2)c(O)n1` (stereo not shown) [TH7299], the pIC50 (in general, −log10 of the IC50, conventionally taken in molar units) is 6.76.
